Test systems include 786-0; ACHN; DU-145; Hs-578T; M14; MDA-MB-231; MDA-MB-435; MDA-N; NCI-H226; NCI/ADR-RES; OVCAR-3; PC-3; RPMI-8226; SF-539; SNB-75; SR; TK-10; A498.
Assay in all cases: NCI-60 cell line screen, 48 h

Molecules are shown by their SMILES.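 Dose response: 5 concentrations. Exposure: 48 h. Format: 96-well plates. Endpoint: linear interpolation; highest concentration if not reached. Here, GI50 denotes the concentration required for 50% inhibition of growth.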 Activity calls are given as the source filed them. Rule as the data show it: active = GI50 up to about 1.1 µM and inactive = higher.

Take `C=C1CC(C)(COc2ccc3c(C)cc(=O)oc3c2)OC1=O` (stereo not given): the GI50 is 1.48 µM (inactive) with 786-0; 2.08 µM (inactive) with ACHN; 2.36 µM (inactive) with DU-145; 3.56 µM (inactive) in the test with Hs-578T; 1.34 µM (inactive) with M14; 3.92 µM (inactive) in the test with MDA-MB-231. Also, the GI50 was 1.28 µM (inactive) with MDA-MB-435; 0.695 µM (active) in the test with MDA-N; 8.69 µM (inactive) in the test with NCI-H226; 1.95 µM (inactive) with NCI/ADR-RES; 2.31 µM (inactive) in the test with OVCAR-3; 2.39 µM (inactive) in the test with PC-3. In addition, the GI50 in the test on RPMI-8226 is 0.414 µM (active); in the test with SF-539, 0.951 µM (active); in the test on SNB-75 it was 5.42 µM (inactive); in the test with SR, 0.918 µM (active); in the test on TK-10, 1.26 µM (inactive).

As for `CN1C(=O)CN=C(c2ccccc2F)c2cc(N=C=S)ccc21`, the GI50 in the test with 786-0 was 43.8 µM (inactive); with A498 it was 26.8 µM (inactive); in the test on ACHN it was 25.5 µM (inactive); with DU-145, 86.3 µM (inactive); in the test on Hs-578T it was 61.7 µM (inactive); in the test on M14 it was 52.1 µM (inactive). Also, the GI50 with MDA-MB-231 is 45.8 µM (inactive); in the test with MDA-MB-435 it was 35.9 µM (inactive); in the test with MDA-N, 54.3 µM (inactive); in the test with NCI/ADR-RES, 43.1 µM (inactive); in the test with OVCAR-3, 52 µM (inactive); in the test on PC-3, 45.9 µM (inactive). For the same compound, the GI50 in the test on SNB-75 is 33.5 µM (inactive); in the test on TK-10, 37.4 µM (inactive).

`COC1/C=C/C(C)C(C(C)C(OC)C(C)CCC(=O)C(C)C(C/C=C/N(C)C=O)OC)OC(=O)/C=C/C=C(\C)CC(OC)CC2=CC(=O)O[C@H](C2)C(C)C(OC)CC(OC)/C=C/C(C)C(OC)C1` (stereo not given in full): the GI50 in the test on DU-145 was 0.191 µM (active); in the test on Hs-578T, 0.0158 µM (active); in the test on MDA-MB-435, 0.0286 µM (active); in the test with NCI/ADR-RES it was 0.0107 µM (active); in the test with PC-3, 0.00989 µM (active); in the test on RPMI-8226, < 0.005 µM (active). Moreover, the GI50 in the test with SNB-75 and in the test with SR was < 0.005 µM (active) each time.

With `C=CCNC(=S)N/N=C1\C(=O)Nc2ccc([N+](=O)[O-])cc21`, the GI50 in the test with A498 is 21.1 µM (inactive); with ACHN, 23.3 µM (inactive); in the test with DU-145 it was 31.4 µM (inactive); with Hs-578T it was > 100 µM (inactive); with M14, 62.1 µM (inactive); with MDA-MB-231, > 100 µM (inactive). Moreover, the GI50 in the test on MDA-MB-435 was 89.3 µM (inactive); in the test with MDA-N, 83 µM (inactive); in the test on NCI-H226, > 100 µM (inactive); in the test with NCI/ADR-RES it was 17.7 µM (inactive); in the test on OVCAR-3 it was 69.2 µM (inactive); in the test on PC-3, > 100 µM (inactive). For the same compound, the GI50 is 57.3 µM (inactive) with RPMI-8226, > 100 µM (inactive) in the test with SF-539, 10.3 µM (inactive) in the test on SR and 26.4 µM (inactive) in the test on TK-10.

Regarding `CCOc1cc(/C=N\O)cc(/C=N/O)c1O`, the GI50 was 49.4 µM (inactive) with 786-0; 18 µM (inactive) with A498; 22.7 µM (inactive) with ACHN; 68.5 µM (inactive) in the test on DU-145; 31.3 µM (inactive) with Hs-578T; 44 µM (inactive) in the test on M14. Further, the GI50 was 69.8 µM (inactive) in the test with MDA-MB-231; 32.3 µM (inactive) in the test on MDA-MB-435; 35.6 µM (inactive) in the test with MDA-N; 37.9 µM (inactive) with NCI-H226; 41.7 µM (inactive) in the test on NCI/ADR-RES; 31.1 µM (inactive) with OVCAR-3. For the same compound, the GI50 in the test with PC-3 was 28.2 µM (inactive); in the test on RPMI-8226 it was 24.7 µM (inactive); with SF-539 it was 24 µM (inactive); with SNB-75 it was 23.1 µM (inactive); in the test on SR, 29.3 µM (inactive); in the test with TK-10, > 100 µM (inactive).

With `c1ccc(CSC(SCc2ccccc2)c2cccc3ccccc23)cc1`, the GI50 with A498, with ACHN, with DU-145, in the test with Hs-578T, with M14 and with MDA-MB-231 was > 10 µM (inactive) each time. In addition, the GI50 in the test with MDA-MB-435 was > 10 µM (inactive); in the test with MDA-N it was > 10 µM (inactive); in the test on NCI-H226 it was > 10 µM (inactive); in the test on NCI/ADR-RES, > 10 µM (inactive); in the test with PC-3, > 10 µM (inactive); in the test on RPMI-8226 it was 9.79 µM (inactive). In addition, the GI50 with SF-539, with SNB-75, in the test with SR and with TK-10 was > 10 µM (inactive) in each case.

On to `CN(C)c1ccc(C2SCC(=O)N2NS(=O)(=O)c2cccc(C(=O)O)c2)cc1` (stereo not given), for which the GI50 is 17.2 µM (inactive) in the test on 786-0; > 100 µM (inactive) in the test on ACHN; > 100 µM (inactive) in the test on DU-145; > 100 µM (inactive) in the test with Hs-578T; > 100 µM (inactive) in the test on M14; > 100 µM (inactive) with MDA-MB-231. Besides, the GI50 was > 100 µM (inactive) in the test with MDA-MB-435; > 100 µM (inactive) with MDA-N; 52 µM (inactive) in the test with NCI-H226; > 100 µM (inactive) in the test on OVCAR-3; > 100 µM (inactive) with PC-3; 45.9 µM (inactive) in the test with RPMI-8226. Further, the GI50 with SF-539 is 46.3 µM (inactive); in the test on SNB-75 it was > 100 µM (inactive); in the test on TK-10 it was > 100 µM (inactive).

Regarding `O=c1c(-c2ccccc2)c(SCCCN2CCCCC2)n(-c2ccccc2)c(=S)n1-c1ccccc1`, the GI50 was 15.1 µM (inactive) with A498; 17.4 µM (inactive) in the test on ACHN; 17.7 µM (inactive) with DU-145; 34.2 µM (inactive) with Hs-578T; 14.5 µM (inactive) in the test on MDA-MB-231; 17.7 µM (inactive) in the test with MDA-MB-435. The GI50 in the test on NCI-H226 was 15.3 µM (inactive); in the test with NCI/ADR-RES it was 16.5 µM (inactive); in the test on OVCAR-3, 18.2 µM (inactive); with PC-3, 16.5 µM (inactive); with RPMI-8226, 17 µM (inactive); in the test on SF-539 it was 15.7 µM (inactive). Moreover, the GI50 in the test with SNB-75 is 15.3 µM (inactive); in the test on SR, 16.2 µM (inactive); in the test with TK-10, 16.9 µM (inactive).

Take `CCOC(=O)CSc1c(C(=O)OCC)c(=O)n(-c2ccccc2)c(=S)n1-c1ccccc1`: the GI50 was 85.5 µM (inactive) with 786-0; 36 µM (inactive) in the test on ACHN; 82 µM (inactive) in the test with DU-145; 33 µM (inactive) with Hs-578T; > 100 µM (inactive) in the test on M14; 41.6 µM (inactive) with MDA-MB-435. For the same compound, the GI50 in the test with MDA-N was > 100 µM (inactive); with NCI-H226 it was 36.5 µM (inactive); with NCI/ADR-RES it was 2.99 µM (inactive); with OVCAR-3 it was > 100 µM (inactive); in the test on PC-3 it was 4.61 µM (inactive); in the test with RPMI-8226 it was 37.5 µM (inactive). The GI50 with SNB-75 was 54.6 µM (inactive); in the test with SR, 13.7 µM (inactive); in the test with TK-10, > 100 µM (inactive).

For the compound `CC1(C)OP(=O)(O)CC1=O`, the GI50 with 786-0, in the test with A498, in the test with ACHN, in the test on DU-145, in the test on Hs-578T and with M14 was > 100 µM (inactive) throughout. For the same compound, the GI50 in the test on MDA-MB-435, with MDA-N, in the test on NCI-H226, in the test on NCI/ADR-RES, with OVCAR-3 and in the test on PC-3 was > 100 µM (inactive) in each case. Also, the GI50 in the test with SF-539, with SR and with TK-10 was > 100 µM (inactive) in each case.

Consider `COc1ccc(CCCC(=O)O)c(C)c1`, for which the GI50 in the test with 786-0 was 30.1 µM (inactive); with A498, 14.3 µM (inactive); in the test on ACHN, 35.1 µM (inactive); in the test on DU-145 it was 21.1 µM (inactive); in the test with Hs-578T, 43.5 µM (inactive); with M14 it was 92.9 µM (inactive). Further, the GI50 in the test with MDA-MB-231 is 36.1 µM (inactive); in the test on MDA-MB-435 it was 32.8 µM (inactive); in the test with MDA-N, 62.4 µM (inactive); with NCI-H226 it was 22.7 µM (inactive); in the test with NCI/ADR-RES it was > 100 µM (inactive); in the test with OVCAR-3 it was 30.3 µM (inactive). In addition, the GI50 in the test on PC-3 was 37.9 µM (inactive); with SR it was 9.48 µM (inactive); with TK-10, 81.8 µM (inactive).

As to `FC(F)(F)C(C1=NC(C(F)(F)F)(C(F)(F)F)N=C(N2CCOCC2)O1)C(F)(F)F`, the GI50 in the test on ACHN is 17.4 µM (inactive); with DU-145, 35.5 µM (inactive); in the test on Hs-578T, 32.4 µM (inactive); in the test on M14, 18.8 µM (inactive); with MDA-MB-231, 14.4 µM (inactive); in the test with MDA-MB-435 it was 15.3 µM (inactive). The GI50 with MDA-N was 19.1 µM (inactive); in the test with NCI/ADR-RES it was 16.6 µM (inactive); in the test with OVCAR-3, 25.5 µM (inactive); in the test on PC-3 it was 16.9 µM (inactive); in the test on RPMI-8226 it was 20.8 µM (inactive); in the test with SF-539 it was 22.4 µM (inactive). Further, the GI50 in the test on SNB-75 is 29.5 µM (inactive); in the test with SR, 18.8 µM (inactive); in the test with TK-10, 28.7 µM (inactive).

On to `N#Cc1c(-c2ccccc2)cn(C(=O)c2ccccc2)c1N`, for which the GI50 with 786-0, in the test on ACHN, with DU-145, in the test with Hs-578T, in the test on M14 and in the test with MDA-MB-231 was > 100 µM (inactive) each time. Further, the GI50 in the test with MDA-MB-435, in the test with MDA-N, in the test on NCI-H226, with NCI/ADR-RES, in the test with OVCAR-3 and in the test with PC-3 was > 100 µM (inactive) each time. The GI50 in the test on RPMI-8226, in the test on SNB-75, with SR and in the test on TK-10 was > 100 µM (inactive) in each case.

Values taken from ChEMBL document CHEMBL1201862, “PubChem BioAssay data set” (2004).
